Data taken from PubChem BioAssay (NCI).
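Cultured in 96-well plates, cells were exposed to test compound for 48 hours across five concentrations. GI50 is the concentration that inhibits growth by half. TGI marks complete inhibition of growth.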

Experiments:
Test in all cases: growth of human tumour cells (NCI), 48 h
MDA-MB-231 breast = system: MDA-MB-231 breast
OVCAR-8 ovarian = system: OVCAR-8 ovarian
HS 578T breast = system: HS 578T breast
SF-295 CNS = system: SF-295 CNS
PC-3 prostate = system: PC-3 prostate
SK-MEL-5 melanoma = system: SK-MEL-5 melanoma
LOX IMVI melanoma = system: LOX IMVI melanoma
DU-145 prostate = system: DU-145 prostate
HL-60(TB) leukemia = system: HL-60(TB) leukemia
UO-31 renal = system: UO-31 renal

| Structure (SMILES) | TGI (MDA-MB-231 breast) [µM] | TGI (OVCAR-8 ovarian) [µM] | TGI (HS 578T breast) [µM] | TGI (SF-295 CNS) [µM] | TGI (PC-3 prostate) [µM] | TGI (SK-MEL-5 melanoma) [µM] | TGI (LOX IMVI melanoma) [µM] | TGI (DU-145 prostate) [µM] | TGI (HL-60(TB) leukemia) [µM] | TGI (UO-31 renal) [µM] | GI50 (MDA-MB-231 breast) [µM] | GI50 (OVCAR-8 ovarian) [µM] | GI50 (HS 578T breast) [µM] | GI50 (SF-295 CNS) [µM] | GI50 (PC-3 prostate) [µM] | GI50 (SK-MEL-5 melanoma) [µM] | GI50 (LOX IMVI melanoma) [µM] | GI50 (DU-145 prostate) [µM] | GI50 (HL-60(TB) leukemia) [µM] | GI50 (UO-31 renal) [µM] |
| --- | --- | --- | --- | --- | --- | --- | --- | --- | --- | --- | --- | --- | --- | --- | --- | --- | --- | --- | --- | --- |
| COC1=CC(=O)O/C1=C(\OC)C1OC1c1ccccc1 (stereo not given) | > 100 | > 100 | > 100 | > 100 | > 100 | > 100 | > 100 | > 100 | > 100 | > 100 | – | – | – | – | – | – | – | – | – | – |
| Nc1cc2c3c(cccc3c1)C(=O)N(CCN1CCCC1)C2=O | 40.7 | > 100 | 35 | 11.2 | > 66.6 | 4.01 | 13.4 | 37.4 | > 100 | > 100 | 4.95 | 3.69 | 4.83 | 2.59 | 3.89 | 1.65 | 2.25 | 2.01 | 4.16 | 2.35 |
| COc1ccc2[nH]c(C(=O)N3CCN(C(=O)OCc4ccc5c(Cl)cc(Cl)c(O)c5n4)CC3)cc2c1 | 2.87 | 2.42 | 6.07 | 13.8 | 2.67 | 3.03 | 2.81 | 2.53 | 2.85 | 2.17 | 1.34 | 1.01 | 1.87 | 3.91 | 1.06 | 1.66 | 1.43 | 1.19 | 0.977 | 1.01 |
| Cn1c(COC(=O)NCCn2ccnc2)nc2c(N3CCOCC3)nc(-c3ccccc3)nc21 | 2.34 | 2.63 | 3.59 | 2.89 | 2.14 | 2.81 | 0.314 | 2.13 | 2.48 | 1.74 | 1.06 | 0.913 | 1.06 | 1.54 | 0.751 | 1.46 | 0.152 | 0.888 | 0.615 | 0.441 |
| CSc1nc(Nc2cccc(NC(=O)CCl)c2)c(C#N)c(-c2cccc([N+](=O)[O-])c2)n1 | 10.7 | 9.37 | 30.7 | 36.4 | 3.73 | 3.28 | 0.152 | 4.57 | 6.48 | 5.73 | 2.39 | 2.39 | 3.21 | 9.83 | 1.61 | 1.51 | 0.0373 | 2.25 | 1.82 | 1.62 |
| Oc1ccc(Cl)cc1C=Nc1cnc2ccccc2c1 | > 85.7 | > 100 | > 100 | > 100 | > 88.4 | > 90 | > 100 | > 100 | 34.9 | > 100 | – | – | – | – | – | – | – | – | – | – |
| CCN(CC)C(=S)SSC(C)C | 32.5 | 35.4 | 28.3 | 49 | 29.2 | 24.2 | 24.1 | 35.2 | 29.8 | 24.1 | 14.6 | 15.1 | 0.936 | 17.9 | 14.1 | 11.6 | 4.67 | 17.1 | 5.63 | 8.99 |
| COC1=CC(c2ccc[nH]2)=N/C1=C\c1[nH]c(C)c(C(=O)CCCCCCCCC(=O)O[C@H]2CC[C@H]3C4CCc5cc(O)ccc5C4CC[C@]23C)c1C (stereo not given in full) | 7.06 | > 50 | > 33.9 | > 43.8 | > 50 | 0.456 | 0.267 | > 50 | > 50 | 5.3 | 0.148 | 0.378 | 0.411 | 1.09 | 0.327 | 0.139 | 0.0764 | 0.387 | 0.289 | 1.18 |
